Assays:
FRK = target: T1, FRK (Homo sapiens, UniProt P42685); assay: Z`-LYTE kinase profiling, FRK; format: biochemical
T1 construct: purchased Invitrogen/Life Technologies

FAK = FAK (Homo sapiens, UniProt Q05397); assay: Z`-LYTE kinase inhibitory assay, FAK
EGFR = EGFR (Homo sapiens, UniProt P00533); assay: Z`-LYTE kinase inhibitory assay, EGFR
VEGFR-2 = target: T2, VEGFR-2 (Homo sapiens, UniProt P35968); assay: Z`-LYTE kinase profiling, VEGFR-2; format: biochemical
T2 construct: purchased Invitrogen/Life Technologies

IGF-1R = target: T3, IGF-1R (Homo sapiens, UniProt P08069); assay: Z`-LYTE kinase profiling, IGF-1R; format: biochemical
T3 construct: purchased Invitrogen/Life Technologies

BTK = target: T4, BTK (Homo sapiens, UniProt Q06187); assay: Z`-LYTE kinase profiling, BTK; format: biochemical
T4 construct: purchased Invitrogen/Life Technologies
T4 sequence (Q06187 whole entry): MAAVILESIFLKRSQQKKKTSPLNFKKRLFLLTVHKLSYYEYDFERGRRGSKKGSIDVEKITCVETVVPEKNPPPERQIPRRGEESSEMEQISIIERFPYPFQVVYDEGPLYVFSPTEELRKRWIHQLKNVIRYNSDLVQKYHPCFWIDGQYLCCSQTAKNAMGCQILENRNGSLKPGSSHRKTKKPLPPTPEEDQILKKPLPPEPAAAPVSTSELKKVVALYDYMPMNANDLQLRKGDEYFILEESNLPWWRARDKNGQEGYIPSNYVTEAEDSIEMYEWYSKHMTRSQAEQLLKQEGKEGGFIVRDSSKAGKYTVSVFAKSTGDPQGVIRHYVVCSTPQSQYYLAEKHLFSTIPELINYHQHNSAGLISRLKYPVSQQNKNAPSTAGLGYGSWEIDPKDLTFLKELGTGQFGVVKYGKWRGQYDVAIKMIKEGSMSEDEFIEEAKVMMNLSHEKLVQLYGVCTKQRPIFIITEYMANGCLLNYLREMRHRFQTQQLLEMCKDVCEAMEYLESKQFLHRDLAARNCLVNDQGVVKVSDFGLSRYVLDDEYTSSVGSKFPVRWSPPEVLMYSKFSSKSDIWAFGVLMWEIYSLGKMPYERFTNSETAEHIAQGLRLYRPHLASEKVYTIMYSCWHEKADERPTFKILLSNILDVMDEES

c-Src = target: T5, c-Src (Homo sapiens, UniProt P12931); assay: Z`-LYTE kinase profiling, c-Src; format: biochemical
T5 construct: purchased Invitrogen/Life Technologies

[1] = test system: HeLa cervical cancer cell line; assay: MTT antiproliferative assay, HeLa; format: cell-based; settings: 10 µM, 24 h
Description: (§1) At least, three independent experiments were performed.

recombinant human TOP1 = target: T6, recombinant human TOP1 (Homo sapiens, UniProt P11387); assay: Topoisomerase I-mediated DNA cleavage assay; settings: tested at 0.1, 1, 10, 100 µM
T6 sequence (P11387 1-765): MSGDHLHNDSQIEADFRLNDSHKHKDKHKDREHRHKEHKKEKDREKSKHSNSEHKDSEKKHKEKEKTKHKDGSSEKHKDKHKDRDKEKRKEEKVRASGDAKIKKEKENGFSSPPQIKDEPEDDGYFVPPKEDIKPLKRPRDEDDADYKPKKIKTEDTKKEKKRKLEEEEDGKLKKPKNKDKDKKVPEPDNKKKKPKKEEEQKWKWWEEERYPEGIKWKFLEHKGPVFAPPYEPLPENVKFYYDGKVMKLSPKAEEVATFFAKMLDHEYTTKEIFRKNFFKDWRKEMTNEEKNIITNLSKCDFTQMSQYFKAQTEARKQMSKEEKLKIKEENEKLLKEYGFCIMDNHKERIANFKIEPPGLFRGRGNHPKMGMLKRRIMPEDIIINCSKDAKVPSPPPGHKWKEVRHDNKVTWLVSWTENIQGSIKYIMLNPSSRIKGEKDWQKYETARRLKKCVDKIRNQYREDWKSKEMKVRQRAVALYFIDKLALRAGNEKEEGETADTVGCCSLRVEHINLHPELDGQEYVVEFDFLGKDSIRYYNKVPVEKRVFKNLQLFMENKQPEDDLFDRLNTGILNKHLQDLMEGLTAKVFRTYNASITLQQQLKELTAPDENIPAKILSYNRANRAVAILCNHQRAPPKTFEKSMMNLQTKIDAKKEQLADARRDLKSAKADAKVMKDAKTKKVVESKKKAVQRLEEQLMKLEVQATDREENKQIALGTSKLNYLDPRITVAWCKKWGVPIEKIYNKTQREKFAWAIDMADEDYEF

[2] = test system: MDMBA-231 breast cancer cell line; assay: MTT antiproliferative assay, MDMBA-231; format: cell-based; settings: 10 µM, 24 h
Description: as §1

VEGFR-1 = target: T7, VEGFR-1 (Homo sapiens, UniProt P17948); assay: Z`-LYTE kinase profiling, VEGFR-1; format: biochemical
T7 construct: purchased Invitrogen/Life Technologies
T7 sequence (P17948 27-1338): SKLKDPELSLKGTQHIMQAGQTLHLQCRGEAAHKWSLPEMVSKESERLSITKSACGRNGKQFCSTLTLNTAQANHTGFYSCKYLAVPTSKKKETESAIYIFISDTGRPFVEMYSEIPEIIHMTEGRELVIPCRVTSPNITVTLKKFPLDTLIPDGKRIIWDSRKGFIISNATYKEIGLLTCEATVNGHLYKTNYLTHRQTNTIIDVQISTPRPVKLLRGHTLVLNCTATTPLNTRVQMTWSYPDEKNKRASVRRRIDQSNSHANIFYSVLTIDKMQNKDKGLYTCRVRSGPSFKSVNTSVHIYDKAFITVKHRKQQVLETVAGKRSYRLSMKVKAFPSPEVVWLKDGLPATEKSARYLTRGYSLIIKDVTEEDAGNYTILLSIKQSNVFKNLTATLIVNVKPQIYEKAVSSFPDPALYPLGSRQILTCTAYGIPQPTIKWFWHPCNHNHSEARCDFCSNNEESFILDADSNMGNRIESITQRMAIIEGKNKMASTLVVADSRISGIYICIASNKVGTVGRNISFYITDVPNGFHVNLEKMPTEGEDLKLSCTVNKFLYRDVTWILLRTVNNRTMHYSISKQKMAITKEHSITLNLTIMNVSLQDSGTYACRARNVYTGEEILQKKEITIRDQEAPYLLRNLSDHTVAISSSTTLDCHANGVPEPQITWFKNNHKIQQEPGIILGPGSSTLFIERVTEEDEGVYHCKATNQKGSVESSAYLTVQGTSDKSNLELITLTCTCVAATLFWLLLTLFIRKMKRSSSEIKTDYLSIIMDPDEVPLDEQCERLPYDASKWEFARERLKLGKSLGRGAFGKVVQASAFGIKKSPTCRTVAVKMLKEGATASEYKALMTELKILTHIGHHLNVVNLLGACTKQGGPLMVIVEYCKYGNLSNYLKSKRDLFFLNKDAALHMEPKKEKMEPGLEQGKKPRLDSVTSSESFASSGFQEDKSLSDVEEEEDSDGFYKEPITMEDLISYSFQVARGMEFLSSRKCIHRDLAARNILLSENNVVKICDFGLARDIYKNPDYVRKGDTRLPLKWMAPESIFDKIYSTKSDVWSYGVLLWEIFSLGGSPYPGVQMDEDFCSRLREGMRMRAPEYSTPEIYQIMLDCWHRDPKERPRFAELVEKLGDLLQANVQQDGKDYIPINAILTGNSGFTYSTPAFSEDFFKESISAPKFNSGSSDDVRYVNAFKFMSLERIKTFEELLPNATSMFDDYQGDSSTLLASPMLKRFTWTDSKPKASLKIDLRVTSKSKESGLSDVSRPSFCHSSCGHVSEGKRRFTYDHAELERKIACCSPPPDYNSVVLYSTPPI

[3] = test system: DLD-1 colorectal cancer cell line; assay: MTT antiproliferative assay, DLD-1; settings: for GI% DLD1: 10 µM, 24 h, MTT; for IC50: Homo sapiens, DLD-1, 24 h, read-out: IC50 DLD1 (half maximal growth inhibitory concentration); for fold superior activity compared to Gefitinib, DLD-1: from IC50 values
HER-2 = target: T8, HER-2 (Homo sapiens, UniProt P04626); assay: Z`-LYTE kinase profiling, HER-2; format: biochemical
T8 construct: purchased Invitrogen/Life Technologies
T8 sequence (P04626 23-1255): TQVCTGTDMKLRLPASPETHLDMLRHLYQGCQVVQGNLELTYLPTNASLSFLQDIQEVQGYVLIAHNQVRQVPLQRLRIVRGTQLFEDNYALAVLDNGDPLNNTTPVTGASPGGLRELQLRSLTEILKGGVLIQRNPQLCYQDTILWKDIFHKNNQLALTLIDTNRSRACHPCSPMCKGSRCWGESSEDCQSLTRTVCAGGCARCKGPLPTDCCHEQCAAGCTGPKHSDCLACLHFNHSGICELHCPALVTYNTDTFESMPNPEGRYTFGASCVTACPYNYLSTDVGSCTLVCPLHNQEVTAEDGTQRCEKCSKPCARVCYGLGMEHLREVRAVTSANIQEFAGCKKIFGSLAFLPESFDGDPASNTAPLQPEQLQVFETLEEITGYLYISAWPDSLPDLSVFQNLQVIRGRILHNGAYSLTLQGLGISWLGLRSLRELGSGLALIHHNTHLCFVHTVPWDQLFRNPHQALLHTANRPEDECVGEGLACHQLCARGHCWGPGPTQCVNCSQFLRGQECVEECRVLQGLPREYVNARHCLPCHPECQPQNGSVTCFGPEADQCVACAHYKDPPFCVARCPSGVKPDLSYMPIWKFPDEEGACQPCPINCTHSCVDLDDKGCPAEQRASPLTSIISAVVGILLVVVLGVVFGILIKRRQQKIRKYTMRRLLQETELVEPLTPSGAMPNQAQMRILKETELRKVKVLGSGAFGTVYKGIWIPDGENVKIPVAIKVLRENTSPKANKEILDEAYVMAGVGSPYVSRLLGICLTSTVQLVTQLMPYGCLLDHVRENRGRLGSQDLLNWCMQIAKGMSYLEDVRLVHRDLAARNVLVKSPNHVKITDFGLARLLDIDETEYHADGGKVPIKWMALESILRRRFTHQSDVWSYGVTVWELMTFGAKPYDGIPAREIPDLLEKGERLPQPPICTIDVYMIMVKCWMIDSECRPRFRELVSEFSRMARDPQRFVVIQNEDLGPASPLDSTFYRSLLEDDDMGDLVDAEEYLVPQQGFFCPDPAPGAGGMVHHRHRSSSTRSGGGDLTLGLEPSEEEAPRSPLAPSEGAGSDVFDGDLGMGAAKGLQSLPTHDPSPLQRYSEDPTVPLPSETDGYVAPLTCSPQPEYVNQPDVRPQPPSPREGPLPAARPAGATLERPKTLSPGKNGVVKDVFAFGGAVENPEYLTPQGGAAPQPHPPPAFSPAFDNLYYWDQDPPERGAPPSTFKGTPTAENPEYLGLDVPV

[4] = test system: HCT-116 colorectal cancer cell line; assay: MTT antiproliferative assay, HCT-116; settings: for GI% HCT-116: 10 µM, 24 h, MTT; for IC50: Homo sapiens, HCT-116, 24 h, read-out: IC50 HCT-116 (half maximal growth inhibitory concentration)
[5] = test system: DLD-1 colorectal cancer cell line; assay: Annexin V-FITC/propidium iodide apoptosis assay (AV/PI); format: cell-based; settings: 3 µM, 24 h; control 7%
Description: Also, compounds 6f, 6i, 16d, and 20f exerted potential apoptotic effect elevating the total percentage of apoptotic cells to 84.33, 71.66, 51.66, and 80.66%, respectively.
Flow cytometric analysis was conducted using FACS Calibur flow cytometer (BD Biosciences, San Jose, CA, USA).

[6] = test system: MCF-7 breast cancer cell line; assay: MTT antiproliferative assay, MCF-7; format: cell-based; settings: 10 µM, 24 h
Description: as §1

Sequence of EGFR (P00533 25-1210): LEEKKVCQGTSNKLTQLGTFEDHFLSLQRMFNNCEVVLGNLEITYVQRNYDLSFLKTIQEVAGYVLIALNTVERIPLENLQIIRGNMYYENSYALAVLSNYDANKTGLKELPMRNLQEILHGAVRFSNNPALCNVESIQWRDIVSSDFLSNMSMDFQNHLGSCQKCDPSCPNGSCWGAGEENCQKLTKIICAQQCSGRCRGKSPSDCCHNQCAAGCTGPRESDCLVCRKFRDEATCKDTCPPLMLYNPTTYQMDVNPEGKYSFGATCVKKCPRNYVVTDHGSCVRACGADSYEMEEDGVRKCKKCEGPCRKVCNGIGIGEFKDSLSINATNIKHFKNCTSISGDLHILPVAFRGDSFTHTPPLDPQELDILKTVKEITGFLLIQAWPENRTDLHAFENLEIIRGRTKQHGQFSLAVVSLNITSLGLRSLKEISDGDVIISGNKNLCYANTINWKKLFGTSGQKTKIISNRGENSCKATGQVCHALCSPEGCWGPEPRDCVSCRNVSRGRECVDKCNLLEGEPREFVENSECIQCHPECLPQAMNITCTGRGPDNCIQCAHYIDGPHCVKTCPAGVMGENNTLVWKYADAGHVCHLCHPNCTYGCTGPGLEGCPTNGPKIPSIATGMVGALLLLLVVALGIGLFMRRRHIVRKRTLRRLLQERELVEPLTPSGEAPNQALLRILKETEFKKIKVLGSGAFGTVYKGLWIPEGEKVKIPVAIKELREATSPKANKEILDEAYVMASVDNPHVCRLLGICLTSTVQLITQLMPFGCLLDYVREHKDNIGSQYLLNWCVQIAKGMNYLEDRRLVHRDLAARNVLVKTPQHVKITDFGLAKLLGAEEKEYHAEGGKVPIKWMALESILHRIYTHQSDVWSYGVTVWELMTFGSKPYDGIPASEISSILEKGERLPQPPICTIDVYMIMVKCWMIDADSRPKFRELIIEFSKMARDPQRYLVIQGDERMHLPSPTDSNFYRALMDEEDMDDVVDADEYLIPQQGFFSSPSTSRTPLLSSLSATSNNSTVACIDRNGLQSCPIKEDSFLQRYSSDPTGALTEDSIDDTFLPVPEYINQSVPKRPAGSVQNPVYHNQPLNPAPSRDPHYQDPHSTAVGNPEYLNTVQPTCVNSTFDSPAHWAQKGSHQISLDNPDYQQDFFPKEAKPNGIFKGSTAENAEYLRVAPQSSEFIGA
T1 sequence (P42685 whole entry): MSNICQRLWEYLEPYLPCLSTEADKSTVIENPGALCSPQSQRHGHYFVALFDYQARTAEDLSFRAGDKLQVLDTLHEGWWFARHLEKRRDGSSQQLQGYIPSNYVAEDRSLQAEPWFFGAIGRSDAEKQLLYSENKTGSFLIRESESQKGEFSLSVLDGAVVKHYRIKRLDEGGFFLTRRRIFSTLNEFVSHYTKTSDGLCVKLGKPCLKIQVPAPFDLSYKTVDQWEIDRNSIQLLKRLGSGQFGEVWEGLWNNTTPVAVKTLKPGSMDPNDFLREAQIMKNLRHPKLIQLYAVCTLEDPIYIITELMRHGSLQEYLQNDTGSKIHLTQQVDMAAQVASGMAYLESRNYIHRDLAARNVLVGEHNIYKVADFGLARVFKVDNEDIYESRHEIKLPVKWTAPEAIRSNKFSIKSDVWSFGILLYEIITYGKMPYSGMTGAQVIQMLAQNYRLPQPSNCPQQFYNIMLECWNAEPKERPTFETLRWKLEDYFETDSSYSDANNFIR

In the case of `COc1cc2nc(-c3ccc(C(F)(F)F)cc3)cc(OCCCN3CCN(C)CC3)c2cc1OC` [6f, 6,7-dimethoxy-4–(3-(4-methylpiperazin-1-yl)propoxy)-2–(4-(trifluoromethyl)phenyl)quin-oline], the IC50 (FRK) is reported as 5050 nM, the IC50 (FAK) is reported as 22.7 ± 2.38 nM and the IC50 (EGFR) is reported as 25.4 ± 3.49 nM. It also gave an IC50 (VEGFR-2) of 1940 nM, an IC50 (IGF-1R) of 5350 nM and an IC50 (BTK) of 8790 nM. The IC50 (c-Src) was 3940 nM, the “GI% Hela” value [1] was 69.17% and the “TOP1 inhibitory activity (semiquantitative score relative to 1 µM CPT)” value (recombinant human TOP1) was 0. The “GI% MDMBA-231” value [2] was 75.34%, the IC50 (VEGFR-1) was 1730 nM and the “GI% DLD1” value [3] was 95.36%. For the same compound, the IC50 [3] was 2250 ± 960 nM, the “fold superior activity compared to Gefitinib, DLD-1” value (from here on “fold superior activity”) [3] was 4 fold and the IC50 (HER-2) was 639 nM. For the same compound, the “GI% HCT-116” value [4] was 88.46%, the IC50 [4] was 3090 ± 1050 nM and the “total percentage of AV positive apoptotic DLD-1 cells” value (“total percentage” for short) [5] was 84.33%. For the same compound, the “GI% MCF-7” value [6] was 94.36%.
Work on `COc1cc2nc(-c3ccc(C(F)(F)F)cc3)cc(OCCCNC3CCN(C)CC3)c2cc1OC` [6h, N-(3-((6,7-dimethoxy-2–(4-(trifluoromethyl)phenyl)quinolin-4-yl)oxy)propyl)-1-methyl p-iperidin-4-amine] yielded an IC50 (FRK) of 330 nM, an IC50 (FAK) of 14.2 ± 2.72 nM and an IC50 (EGFR) of 20.2 ± 1.07 nM. The IC50 (VEGFR-2) was 2450 nM, the IC50 (IGF-1R) was 197 nM and the IC50 (BTK) was 3480 nM. The IC50 (c-Src) was 3580 nM, the “GI% Hela” value [1] was 90.78% and the “TOP1 inhibitory activity (semiquantitative score relative to 1 µM CPT)” value (recombinant human TOP1) was “−/+ (−/+: 0–25% 1 µM CPT)”. For the same compound, the “GI% MDMBA-231” value [2] was 84.76%, the IC50 (VEGFR-1) was 464 nM and the “GI% DLD1” value [3] was 92.36%. The IC50 [3] was 1790 ± 210 nM, the “fold superior activity” value [3] was 5 fold and the IC50 (HER-2) was 1580 nM. The “GI% HCT-116” value [4] was 89.34%, the IC50 [4] was 3280 ± 670 nM and the “total percentage” value [5] was 90.33%. The “GI% MCF-7” value [6] was 90.36%.
In the case of `COc1cc2nc(-c3ccc(C(F)(F)F)cc3)cc(OCCCNCC3CCCO3)c2cc1OC` (stereo not drawn) [6i, 3-((6,7-dimethoxy-2–(4-(trifluoromethyl)phenyl)quinolin-4-yl)oxy)-N-((tetrahydrofuran-2-yl)methyl)propan-1-amine], the IC50 (FRK) is reported as 1210 nM, the IC50 (FAK) is reported as 18.4 ± 3.17 nM and the IC50 (EGFR) is reported as 22.4 ± 2.05 nM. The IC50 (VEGFR-2) was 8240 nM, the IC50 (IGF-1R) was 1710 nM and the IC50 (BTK) was 7290 nM. For the same compound, the IC50 (c-Src) was 7010 nM, the “GI% Hela” value [1] was 78.64% and the “TOP1 inhibitory activity (semiquantitative score relative to 1 µM CPT)” value (recombinant human TOP1) was 0. The “GI% MDMBA-231” value [2] was 81.60%, the IC50 (VEGFR-1) was 801 nM and the “GI% DLD1” value [3] was 88.76%. The IC50 [3] was 2480 ± 860 nM, the “fold superior activity” value [3] was 4 fold and the IC50 (HER-2) was 1380 nM. For the same compound, the “GI% HCT-116” value [4] was 82.11%, the IC50 [4] was 5680 ± 1420 nM and the “total percentage” value [5] was 71.66%. For the same compound, the “GI% MCF-7” value [6] was 89.49%.
With `Fc1ccc(-c2cc(OCCCN3CCOCC3)c3cc(Br)ccc3n2)cc1` [16d, 4-(3-((6-bromo-2-(4-fluorophenyl)quinolin-4-yl)oxy)propyl)morpholine] the IC50 (FRK) was 1730 nM, the IC50 (FAK) was 17.4 ± 2.15 nM and the IC50 (EGFR) was 35 ± 2.64 nM. It also gave an IC50 (VEGFR-2) of 4690 nM, an IC50 (IGF-1R) of 2230 nM and an IC50 (BTK) of 2100 nM. For the same compound, the IC50 (c-Src) was 3900 nM, the “GI% Hela” value [1] was 85.67% and the “TOP1 inhibitory activity (semiquantitative score relative to 1 µM CPT)” value (recombinant human TOP1) was 0. The “GI% MDMBA-231” value [2] was 80.24%, the IC50 (VEGFR-1) was 1770 nM and the “GI% DLD1” value [3] was 90.11%. The IC50 [3] was 2180 ± 520 nM, the “fold superior activity” value [3] was 4 fold and the IC50 (HER-2) was 358 nM. For the same compound, the “GI% HCT-116” value [4] was 97.48%, the IC50 [4] was 2430 ± 710 nM and the “total percentage” value [5] was 51.66%. The “GI% MCF-7” value [6] was 86.38% and the melting point was 132 to 134 °C.
In the case of `Clc1ccc(-c2cc(OCCCN3CCOCC3)c3cc(-c4ccco4)ccc3n2)cc1` [20f, 4-(3-((2-(4-chlorophenyl)-6-(furan-2-yl)quinolin-4-yl)oxy)propyl)morpholine], the IC50 (FRK) is reported as 632 nM, the IC50 (FAK) is reported as 15.4 ± 0.98 nM and the IC50 (EGFR) is reported as 24.8 ± 2.71 nM. For the same compound, the IC50 (VEGFR-2) was 89.3 nM, the IC50 (IGF-1R) was 3530 nM and the IC50 (BTK) was 23.5 nM. For the same compound, the IC50 (c-Src) was 92.1 nM, the “GI% Hela” value [1] was 79.64% and the “TOP1 inhibitory activity (semiquantitative score relative to 1 µM CPT)” value (recombinant human TOP1) was 0. The “GI% MDMBA-231” value [2] was 82.58%, the IC50 (VEGFR-1) was 870 nM and the “GI% DLD1” value [3] was 94.18%. For the same compound, the IC50 [3] was 2090 ± 140 nM, the “fold superior activity” value [3] was 4 fold and the IC50 (HER-2) was 251 nM. The “GI% HCT-116” value [4] was 91.37%, the IC50 [4] was 2960 ± 120 nM and the “total percentage” value [5] was 80.66%. For the same compound, the “GI% MCF-7” value [6] was 87.36%.
